In article PMC8161391, “Synthesis of Novel Fluorinated Xanthine Derivatives with High Adenosine A2B Receptor Binding Affinity” (Pharmaceuticals, 2021):
“And” between values parts separate entries of the source, which are not always exact repeats. Equal entries are not always repeated. Where two headings read alike, the source gives them in different places. Each block holds one molecule with its values, some of them ahead of it.

Assays:
[1] = Organ distribution of [3H]PSB-603 in mice; assay type: in vivo, CD-1 mice; settings: 3 min p.i.
Description: To estimate the ability of [^3H]PSB-603 to penetrate the BBB in vivo, an initial biodistribution study in healthy CD1 mice was performed.
All animal studies followed the international guidelines on animal care, and the study protocols were approved by the Landesdirektion Leipzig, the local authority for animal care (Reg.-Nr.: TVV 08/13; Reference number: 24-9168.11/18/8; approval date: 12 June 2013). Animal experiments were performed with female CD-1 mice, 10–12 weeks old, obtained from the Experimental Centre of the Faculty of Medicine (MEZ) at the Leipzig University, Leipzig, Germany.
[^3H]PSB-603 (specific activity 2.92 TBq/mmol, Pharmaron formerly Quotient Bioresearch (Radiochemicals) Ltd, Cardiff, UK; the precursor was synthesized at the University of Bonn, Germany) was dissolved in 100 µL of sterile isotonic saline and administered as a bolus injection via the tail vein of the restrained animal. At 3 min (n = 3; dose: […]), retro-orbital blood samples were obtained from the anesthetized animals. Immediately afterwards, organs of interest were isolated and blood plasma was obtained by centrifugation of the whole blood sample (15,000 rpm, room temperature, 1 min). All samples were weighed and dissolved in SOLVABLE (PerkinElmer Life and Analytical Sciences, Rodgau, Germany) for 5 h at 50 °C, overnight at 30 °C, and a further 5 h at 50 °C. By adding H2O2, decolorization of the samples was achieved. The samples were left to cool down to room temperature before the addition of 15 mL of Ultima Gold cocktail (PerkinElmer Life and Analytical Sciences, Rodgau, Germany). The samples were shaken overnight, and the radioactivity was measured in a Beckman Liquid Scintillation Counter LS 6500 (Beckman Coulter, Fullerton, CA, USA). For each sample, the percentage of the injected dose was calculated and normalized according to the tissue weight (% ID/g tissue), followed by normalization according to the injected dose and the weight of the animal [(% ID/g tissue)/(100%/g animal)] to calculate the standardized uptake value (SUV) for each tissue.

human A2B [2] = settings: determined versus [3H]ZM214385 or [125I]IABOPX; read-out: Ki (human A2B) ± SEM; cited from earlier work
human A2B [3] = target: human A2B; design: method as in PMID 16759111; settings: determined versus [3H]ZM214385; read-out: Ki (human A2B) ± SEM; cited from earlier work
[4] = target: T1, human adenosine A2B receptor (Homo sapiens, UniProt P29275); experiment: Competition binding assay, A2B receptor, radioligand [3H]PSB-603; settings: vs [3H]PSB-603, mean ± SEM of three experiments
T1 construct: host or cells: CHO or HEK cells (membrane preparations)
T1 sequence (P29275 1-332): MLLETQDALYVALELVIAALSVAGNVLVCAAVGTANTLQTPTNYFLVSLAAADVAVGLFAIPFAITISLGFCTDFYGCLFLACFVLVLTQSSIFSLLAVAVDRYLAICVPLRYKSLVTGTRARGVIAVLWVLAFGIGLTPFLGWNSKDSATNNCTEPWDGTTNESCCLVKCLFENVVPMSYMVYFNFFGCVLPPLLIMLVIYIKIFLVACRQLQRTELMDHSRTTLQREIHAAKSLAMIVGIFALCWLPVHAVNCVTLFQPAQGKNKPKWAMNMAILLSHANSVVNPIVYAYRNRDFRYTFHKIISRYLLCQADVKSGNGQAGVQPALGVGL
Description: (§1) For the two novel fluorinated xanthine derivatives, the binding affinity towards the adenosine receptor subtypes A2B, A2A, A1, and A3 was determined in competition binding assays by incubation of the appropriate standard radioligand with membrane preparations of Chinese hamster ovary (CHO) and human embryonic kidney (HEK) cells, respectively, expressing the corresponding human receptor subtype (Table 2).
(§2) Membrane preparations of recombinant CHO or HEK cells expressing the respective human adenosine receptor subtype were obtained according to Borrman et al. or purchased from Perkin Elmer (Waltham, MA, USA). Radioligand binding assays for human A1, A2A, A2B, and A3 receptors were performed according to Alnouri et al.. The following radioligands were employed: [^3H]2-chloro-N^6-cyclopentyladenosine ([^3H]CCPA, 1 nM) for the A1 receptor, [^3H]3-(3-hydroxypropyl)-7-methyl-8-(m-methoxystyryl)-1-propargylxanthine ([^3H]MSX-2, 1 nM) for the A2A receptor, [^3H]8-(4-[4-(4-chlorophenyl)piperazine-1-sulfonyl]phenyl)-1-propyl-2,3,6,7-tetrahydro-1H-purine-2,6-dione ([^3H]PSB-603, 0.3 nM) for the A2B receptor, and [^3H](R)-8-ethyl-4-methyl-2-(phenyl)1,4,7,8-tetrahydro-5H-imidazo[2,1-i]purin-5-one ([^3H]PSB-11, 1 nM) for the A3 receptor. Three separate experiments were performed for determination of Ki values. All data were analyzed with GraphPad Prism, version 4.1 (GraphPad Inc., La Jolla, CA).

[5] = target: T2, human adenosine A2A receptor (Homo sapiens, UniProt P29274); experiment: Competition binding assay, A2A receptor, radioligand [3H]MSX-2; settings: for Ki: human receptor, vs [3H]MSX-2, mean ± SEM of three experiments; for Selectivity Ratio Ki(Ax)/Ki(A2B) A2A/A2B: human receptors
T2 construct: host or cells: CHO or HEK cells (membrane preparations)
Description: as §1, §2

[6] = target: T3, human adenosine A1 receptor (Homo sapiens, UniProt P30542); experiment: Competition binding assay, A1 receptor, radioligand [3H]CCPA; settings: for Ki: vs [3H]CCPA, mean ± SEM of three experiments; for Selectivity Ratio Ki(Ax)/Ki(A2B) A1/A2B: human receptors
T3 construct: host or cells: CHO or HEK cells (membrane preparations)
T3 sequence (P30542 1-326): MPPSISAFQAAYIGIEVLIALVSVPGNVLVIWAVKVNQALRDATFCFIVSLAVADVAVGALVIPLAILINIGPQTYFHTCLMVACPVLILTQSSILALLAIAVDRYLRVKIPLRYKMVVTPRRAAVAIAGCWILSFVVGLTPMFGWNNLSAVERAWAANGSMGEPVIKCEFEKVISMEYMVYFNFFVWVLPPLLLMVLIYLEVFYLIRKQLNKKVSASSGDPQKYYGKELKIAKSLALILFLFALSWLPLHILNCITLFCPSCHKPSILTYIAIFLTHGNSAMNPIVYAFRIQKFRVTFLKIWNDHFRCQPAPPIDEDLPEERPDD
Description: as §1, §2

[7] = target: T4, human adenosine A3 receptor (Homo sapiens, UniProt P0DMS8); experiment: Competition binding assay, A3 receptor, radioligand [3H]PSB-11; settings: for inhibition at 1 µM / Ki: human receptor; for inhibition at 1 µM: at a concentration of 1 µM; for Ki: vs [3H]PSB-11, mean ± SEM of three experiments; for Selectivity Ratio Ki(Ax)/Ki(A2B) A3/A2B: human receptors
T4 construct: host or cells: CHO or HEK cells (membrane preparations)
T4 sequence (P0DMS8 1-318): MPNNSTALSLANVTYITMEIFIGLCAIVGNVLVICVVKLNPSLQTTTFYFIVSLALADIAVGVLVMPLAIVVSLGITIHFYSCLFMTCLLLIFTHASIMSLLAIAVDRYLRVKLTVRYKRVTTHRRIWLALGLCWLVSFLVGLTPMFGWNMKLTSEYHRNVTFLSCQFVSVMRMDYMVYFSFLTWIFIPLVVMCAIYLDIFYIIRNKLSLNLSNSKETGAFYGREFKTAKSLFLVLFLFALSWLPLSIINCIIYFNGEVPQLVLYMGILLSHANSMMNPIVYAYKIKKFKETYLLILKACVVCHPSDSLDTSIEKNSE
Description: as §1, §2

adenosine A2A receptor [8] = experiment: Receptor binding with adenosine-receptor-expressing rat brain cortical membranes, A2A; settings: rat A2A versus human A2B, from published Ki values
adenosine A1 receptor [9] = experiment: Receptor binding with adenosine-receptor-expressing rat brain cortical membranes, A1; settings: rat A1 versus human A2B, from published Ki values
[10] = target: T4, human adenosine A3 receptor; design: method as in PMID 19569717, PMID 30835463, PMID 16821798; settings: cited from earlier work; for % Inhibition of Radioligand Binding A3: at a concentration of 1 µM (as headed)
adenosine A2A receptor [11] = target: adenosine A2A receptor; design: method as in PMID 19569717, PMID 30835463, PMID 16821798; settings: rat brain cortical membranes; cited from earlier work
adenosine A1 receptor [12] = target: adenosine A1 receptor; design: method as in PMID 19569717, PMID 30835463, PMID 16821798; settings: rat brain cortical membranes; cited from earlier work
[13] = target: T2, human adenosine A2A receptor; design: method as in PMID 19569717, PMID 30835463, PMID 16821798; settings: cited from earlier work
[14] = target: T3, human adenosine A1 receptor; design: method as in PMID 19569717, PMID 30835463, PMID 16821798; settings: cited from earlier work
adenosine A2B receptor = settings: cited from earlier work
[15] = cited from earlier work
[16] = design: method as in PMID 32366046; settings: cited from earlier work
[17] = at a concentration of 1 µM (as headed)

T2 sequence (P29274 whole entry): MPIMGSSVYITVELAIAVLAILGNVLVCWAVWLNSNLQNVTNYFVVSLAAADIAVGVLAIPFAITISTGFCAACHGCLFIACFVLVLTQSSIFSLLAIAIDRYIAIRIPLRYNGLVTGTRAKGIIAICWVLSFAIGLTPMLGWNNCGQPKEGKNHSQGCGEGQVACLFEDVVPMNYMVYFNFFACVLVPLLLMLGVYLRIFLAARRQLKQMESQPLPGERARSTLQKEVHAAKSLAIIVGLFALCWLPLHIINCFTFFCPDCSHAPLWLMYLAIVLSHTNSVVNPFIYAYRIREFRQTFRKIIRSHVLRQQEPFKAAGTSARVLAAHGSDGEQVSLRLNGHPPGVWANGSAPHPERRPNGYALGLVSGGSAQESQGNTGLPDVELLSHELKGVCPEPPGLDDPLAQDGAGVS

- uptake in the bladder, appendix, and lung ([1]; mice): low to moderate
- uptake in the liver ([1]; mice): high
- uptake in the pituitary gland ([1]; mice): moderate
- standardized uptake value (SUV) in brain ([1]; mouse brain, i.v., n = 3): 0.21 ± 0.07 and 0.2
Molecule: [^3H]8-(4-[4-(4-chlorophenyl)piperazine-1-sulfonyl]phenyl)-1-propyl-2,3,6,7-tetrahydro-1H-purine-2,6-dione [[^3H]PSB-603]

Molecule: CCCn1c(=O)c2[nH]c(-c3ccc(OCC(=O)Nc4ccc(C#N)cc4)cc3)nc2n(CCC)c1=O [MRS-1754]
- Ki (human A2B [2]): 1.97 ± 0.31 nM

Molecule: Cn1c(=O)c2[nH]c(-c3cnn(Cc4cccc(C(F)(F)F)c4)c3)nc2n(C)c1=O [CVT-6975]
- Ki (human A2B [3]): 1 nM

- Ki [4]: 9.97 ± 0.86 nM
- Ki [5]: 375 ± 53 nM
- Selectivity Ratio Ki(Ax)/Ki(A2B) A2A/A2B [5]: 38
- Ki ([6]; human receptor): 255 ± 32 nM
- Selectivity Ratio Ki(Ax)/Ki(A2B) A1/A2B [6]: 25
- inhibition at 1 µM [7]: 45%
- Ki [7]: ~1000 nM
Molecule: CCCn1c(=O)[nH]c2nc(-c3ccc(S(=O)(=O)Nc4ccnc(F)c4)cc3)[nH]c2c1=O [Compound 5, 4-(2,6-Dioxo-1-propyl-2,3,6,7-tetrahydro-1H-purin-8-yl)-N-(2-fluoropyridin-4-yl)benzenesulfonamide]

Molecule: CCCn1c(=O)[nH]c2nc(-c3ccc(S(=O)(=O)Nc4ccccc4)cc3)[nH]c2c1=O [Compound 7]
- Selectivity Ratio Ki(Ax)/Ki(A2B) A3/A2B [7]: >32
- Selectivity Ratio Ki(Ax)/Ki(A2B) A2A/A2B (adenosine A2A receptor [8]): 0.7
- Selectivity Ratio Ki(Ax)/Ki(A2B) A1/A2B (adenosine A1 receptor [9]): 0.06
- % Inhibition of Radioligand Binding A3 [10]: 48%
- Ki [10]: > 1000 nM
- Ki (adenosine A2A receptor [11]): 23 ± 13 nM
- Ki (adenosine A1 receptor [12]): 1.8 ± 1 nM

- Selectivity Ratio Ki(Ax)/Ki(A2B) A2A/A2B [5]: >18,000
- Selectivity Ratio Ki(Ax)/Ki(A2B) A1/A2B [6]: >18,000
- Selectivity Ratio Ki(Ax)/Ki(A2B) A3/A2B [7]: >18,000
Molecule: CCCn1c(=O)[nH]c2nc(-c3ccc(S(=O)(=O)N4CCN(c5ccc(Cl)cc5)CC4)cc3)[nH]c2c1=O [PSB-603, 8-(4-[4-(4-chlorophenyl)piperazine-1-sulfonyl]phenyl)-1-propyl-2,3,6,7-tetrahydro-1H-purine-2,6-dione]
- % Inhibition of Radioligand Binding A2A [13, 17]: 7 ± 14%
- Ki [13]: > 10000 nM
- % Inhibition of Radioligand Binding A1 [14, 17]: 10 ± 3%
- Ki [14]: > 10000 nM
- % Inhibition of Radioligand Binding A3 [10]: 10 ± 15%
- Ki [10]: > 10000 nM

- Ki [4]: 12.3 ± 3.6 nM
- Ki [5]: 158 ± 28 nM
- Selectivity Ratio Ki(Ax)/Ki(A2B) A2A/A2B [5]: 13
- inhibition at 1 µM ([6]; human receptor, at a concentration of 1 µM): 44%
- Ki ([6]; human receptor): ~1000 nM
- Selectivity Ratio Ki(Ax)/Ki(A2B) A1/A2B [6]: 81
- inhibition at 1 µM [7]: 38%
- Ki [7]: > 1000 nM
- Selectivity Ratio Ki(Ax)/Ki(A2B) A3/A2B [7]: >81
Molecule: CCCn1c(=O)[nH]c2nc(-c3ccc(S(=O)(=O)N4CCC(F)CC4)cc3)[nH]c2c1=O [Compound 6, 8-(4-((4-Fluoropiperidin-1-yl)sulfonyl)phenyl)-1-propyl-3,7-dihydro-1H-purine-2,6-dione]

Molecule: O=c1[nH]c(=O)c2cc(-c3ccnc([18F])c3)c(-c3ccco3)nc2[nH]1 [Compound 3]
- affinity towards the A2B receptor (in words) (adenosine A2B receptor): good affinity
- in vivo stability (in words) ([15]; compared to 2): considerably improved in vivo stability
- brain uptake (in words) [16]: rather low

Molecule: [11CH3]n1nc(-c2ccccc2)c(=O)n2c3ccccc3nc12 [Compound 1]
- IC50 (adenosine A2B receptor): 210 ± 12.3 nM

- Selectivity Ratio Ki(Ax)/Ki(A2B) A3/A2B [7]: 7
- Selectivity Ratio Ki(Ax)/Ki(A2B) A2A/A2B (adenosine A2A receptor [8]): 35
- Selectivity Ratio Ki(Ax)/Ki(A2B) A1/A2B (adenosine A1 receptor [9]): 4
Molecule: CCCn1c(=O)[nH]c2nc(-c3ccc(S(=O)(=O)N4CCCCC4)cc3)[nH]c2c1=O [Compound 8]
- Ki (adenosine A2A receptor [11]): 714 ± 122 nM
- Ki (adenosine A1 receptor [12]): 91.1 ± 25 nM

Molecule: O=C(Nc1cnc(-c2ccnc([18F])c2)c(-c2ccccc2F)n1)C1CC1 [Compound 2]
- affinity towards the adenosine A2B receptor (in words) (adenosine A2B receptor): good affinity
- metabolic degradation in vivo (in words) ([15]; metabolism studies in mice): rapid metabolic degradation
